Consider 13 compounds from ChEMBL document CHEMBL5390202, “Cannabinoid Receptor Type II Ligands from Sandalwood Oil and Synthetic α-Santalol Derivatives” (J Nat Prod, 2023).

Calls of active or inactive are those of the source. No cut-off for these calls is given here.

The target of test [1] is T1, Cannabinoid receptor 2 (Homo sapiens, UniProt P34972). In words: Potency index, ratio of alpha-santalol Ki to test compound Ki for displacement of [3H]-CP55940 from human CB2 receptor expressed in CHO cell membranes incubated for 1 hr by TopCount liquid scintillation counting analysis. As to conditions: Membrane, filed as agonist.
The target of test [2] is T1, Cannabinoid receptor 2. In words: Agonist activity at CB2 receptor (unknown origin) expressed in human SH-SY5Y cells assessed as increase in intracellular calcium flux at 0.032 to 0.1 uM incubated for 3 mins by Fluo-4AM dye based fluorescence analysis. As to conditions: filed as agonist, dose 0.032-0.1 µM. Type of test: functional, cell-based.
For test [3], the target named is T1, Cannabinoid receptor 2. In words: Agonist activity at CB2 receptor (unknown origin) expressed in human SH-SY5Y cells assessed as increase in intracellular calcium flux at 0.032 to 0.1 uM incubated for 3 mins in presence of 10 uM raloxifene by Fluo-4AM dye based fluorescence analysis. In kind it is functional, cell-based. Particulars: dose 0.032-0.1 µM.
Test [4] addresses T1, Cannabinoid receptor 2. In words: Displacement of [3H]-CP55940 from human CB2 receptor expressed in CHO cell membranes at 10 uM incubated for 1 hr by TopCount liquid scintillation counting analysis relative to control. As to conditions: Membrane.
Test [5] addresses T1, Cannabinoid receptor 2. In words: Agonist activity at CB2 receptor (unknown origin) expressed in human SH-SY5Y cells assessed as increase in intracellular calcium flux at 0.032 to 0.1 uM incubated for 3 mins in presence of 60 nM AM-630 by Fluo-4AM dye based fluorescence analysis. In kind it is functional, cell-based. Particulars: dose 0.032-0.1 µM.
Test [6] addresses Cannabinoid receptor 1 (Homo sapiens) (UniProt P21554). In words: Displacement of [3H]-CP55940 from human CB1 receptor expressed in CHO cell membranes at 10 uM incubated for 1 hr by TopCount liquid scintillation counting analysis relative to control. Particulars: Membrane.
For test [7], the target named is T1, Cannabinoid receptor 2. In words: Displacement of [3H]-CP55940 from human CB2 receptor expressed in CHO cell membranes assessed as inhibition constant incubated for 1 hr by TopCount liquid scintillation counting analysis. The arrangement: species or system Membrane.
In test [8] the target is D(2) dopamine receptor (Rattus norvegicus, UniProt P61169). In words: Displacement of [3H]-raclopride from rat brain striatum dopamine D2 receptor incubated for 60 mins by liquid scintillation counting analysis. Type of test: tissue-based.
Test [9] deals with 5-hydroxytryptamine receptor 2A (Rattus norvegicus, UniProt P14842). In words: Displacement of [3H]-ketanserin from rat brain cortex 5-HT2A receptor incubated for 60 mins by liquid scintillation counting analysis. In kind it is tissue-based.
Test [10] has as its target T1, Cannabinoid receptor 2. In words: Agonist activity at CB2 receptor (unknown origin) expressed in human SH-SY5Y cells assessed as increase in intracellular calcium flux at 3.2 to 10 uM incubated for 3 mins in presence of 60 nM AM-630 by Fluo-4AM dye based fluorescence analysis. In kind it is functional, cell-based. Particulars: dose 3.2-10 µM.
The target of test [11] is T1, Cannabinoid receptor 2. In words: Agonist activity at CB2 receptor (unknown origin) expressed in human SH-SY5Y cells assessed as increase in intracellular calcium flux at 3.2 to 10 uM incubated for 3 mins by Fluo-4AM dye based fluorescence analysis. Type of test: functional, cell-based. As to conditions: filed as agonist, dose 3.2-10 µM.
Test [12] deals with T1, Cannabinoid receptor 2. In words: Agonist activity at CB2 receptor (unknown origin) expressed in human SH-SY5Y cells assessed as increase in intracellular calcium flux at 3.2 to 10 uM incubated for 3 mins in presence of 10 uM raloxifene by Fluo-4AM dye based fluorescence analysis. Type of test: functional, cell-based. As to conditions: dose 3.2-10 µM.

Cannabinoid receptor 1 (Homo sapiens), sequence (P21554 whole entry): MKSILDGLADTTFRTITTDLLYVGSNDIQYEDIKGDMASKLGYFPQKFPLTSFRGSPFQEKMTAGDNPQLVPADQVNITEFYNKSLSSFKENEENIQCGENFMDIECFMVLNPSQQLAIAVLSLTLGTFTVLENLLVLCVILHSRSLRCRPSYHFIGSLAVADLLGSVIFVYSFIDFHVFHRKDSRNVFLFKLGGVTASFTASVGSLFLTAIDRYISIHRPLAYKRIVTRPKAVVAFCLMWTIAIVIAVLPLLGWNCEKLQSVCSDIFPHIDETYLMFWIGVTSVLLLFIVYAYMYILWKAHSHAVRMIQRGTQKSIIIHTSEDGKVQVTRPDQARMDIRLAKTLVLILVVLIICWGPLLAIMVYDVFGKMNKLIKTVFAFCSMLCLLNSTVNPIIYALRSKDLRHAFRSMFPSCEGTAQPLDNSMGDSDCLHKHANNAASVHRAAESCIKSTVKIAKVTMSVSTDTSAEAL
T1 sequence (P34972 whole entry): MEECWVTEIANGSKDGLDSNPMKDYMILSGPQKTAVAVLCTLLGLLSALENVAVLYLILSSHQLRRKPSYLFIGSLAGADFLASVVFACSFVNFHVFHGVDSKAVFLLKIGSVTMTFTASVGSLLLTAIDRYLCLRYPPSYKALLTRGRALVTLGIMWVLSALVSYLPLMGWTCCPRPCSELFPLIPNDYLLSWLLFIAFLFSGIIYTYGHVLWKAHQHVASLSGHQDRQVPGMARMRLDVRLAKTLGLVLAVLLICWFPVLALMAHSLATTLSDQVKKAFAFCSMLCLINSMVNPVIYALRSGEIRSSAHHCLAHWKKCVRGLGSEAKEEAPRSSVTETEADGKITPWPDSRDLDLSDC
5-hydroxytryptamine receptor 2A, sequence (P14842 whole entry): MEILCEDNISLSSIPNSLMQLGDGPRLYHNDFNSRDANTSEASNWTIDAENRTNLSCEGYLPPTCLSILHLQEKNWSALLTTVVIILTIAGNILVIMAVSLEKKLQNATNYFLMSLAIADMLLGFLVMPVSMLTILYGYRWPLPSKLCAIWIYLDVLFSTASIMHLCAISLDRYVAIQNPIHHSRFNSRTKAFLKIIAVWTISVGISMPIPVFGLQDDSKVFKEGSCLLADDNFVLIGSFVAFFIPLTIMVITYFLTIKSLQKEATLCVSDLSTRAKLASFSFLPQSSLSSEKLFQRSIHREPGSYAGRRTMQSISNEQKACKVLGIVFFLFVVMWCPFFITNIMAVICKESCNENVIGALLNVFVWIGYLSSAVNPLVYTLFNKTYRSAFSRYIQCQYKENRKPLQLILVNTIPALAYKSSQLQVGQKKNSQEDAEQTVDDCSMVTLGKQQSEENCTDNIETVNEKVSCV
D(2) dopamine receptor, sequence (P61169 whole entry): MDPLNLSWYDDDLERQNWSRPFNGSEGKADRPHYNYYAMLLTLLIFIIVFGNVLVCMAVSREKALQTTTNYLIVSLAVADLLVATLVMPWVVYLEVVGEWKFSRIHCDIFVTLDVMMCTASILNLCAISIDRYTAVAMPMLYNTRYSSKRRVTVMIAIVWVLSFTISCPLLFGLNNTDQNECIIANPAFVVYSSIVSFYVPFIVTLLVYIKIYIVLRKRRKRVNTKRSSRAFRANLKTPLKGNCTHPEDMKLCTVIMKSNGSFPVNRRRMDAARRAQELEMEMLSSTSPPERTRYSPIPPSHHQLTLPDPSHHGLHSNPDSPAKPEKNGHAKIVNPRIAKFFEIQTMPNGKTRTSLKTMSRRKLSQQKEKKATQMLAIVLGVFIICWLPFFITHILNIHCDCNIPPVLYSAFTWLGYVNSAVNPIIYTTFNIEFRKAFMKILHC

In the case of `C/C(=C/CC[C@]1(C)[C@H]2C[C@@H]3[C@@H](C2)[C@]31C)CN1CCN(C)CC1`, the Ratio Ki in test [1] came out at 10.6. Besides, in test [2], the outcome was Active. The result in [3] and in test [5] was inactive. For the same compound, the Activity in test [4] (filed as agonist) is 82.1%; in test [6], under 20%. The Ki in [7] came to 0.99 µM.

For the compound `C/C(=C/CC[C@]1(C)[C@H]2CC3[C@H](C2)[C@]31C)CO`, the IC50 came to 75 µM in test [8] and 180 µM in test [9]. In addition, the Activity is 62.5% in test [4] (filed as agonist) and under 16% in [6]. Besides, the result in test [10] and in test [12] was inactive. For the same compound, the outcome in [11] was Active. In test [7], the Ki was determined as 10.5 µM.

As for `O=C(c1ccc(OCCN2CCCCC2)cc1)c1c(-c2ccc(O)cc2)sc2cc(O)ccc12` [RALOXIFENE], in test [7], the inhibition constant Ki was about 0.24 µM.

As to `C/C(=C/CC[C@]1(C)[C@@H]2C[C@@H]3[C@H](C2)[C@@]31C)CN1CCOCC1`, the Activity in test [4] is 21.3%.

On to `C/C(=C/CC[C@]1(C)[C@@H]2C[C@@H]3[C@H](C2)[C@@]31C)CN1CCCC1`, for which the Activity in test [4] is 8.03%.

The compound `C/C(=C/CC[C@]1(C)[C@@H]2C[C@@H]3[C@H](C2)[C@@]31C)CNNC(=O)c1ccccc1` showed an Activity in test [4] of 26.9%.

Compound `COc1ccc(C(=O)c2c(C)n(CCN3CCOCC3)c3cc(I)ccc23)cc1` registered an Activity in test [4] (filed as antagonist) of 93%.

On to `C/C(=C/CC[C@]1(C)[C@@H]2C[C@@H]3[C@H](C2)[C@@]31C)CN(CCO)CCO`, for which the Activity in [4] came to 1.72%.

Consider `C/C(=C/CC[C@]1(C)[C@@H]2C[C@@H]3[C@H](C2)[C@@]31C)CN(C)C`, for which the Activity in test [4] came to 2.94%.

The compound `C/C(=C/CC[C@]1(C)[C@@H]2C[C@@H]3[C@H](C2)[C@@]31C)CNNC(=O)c1ccc(N(C)C)cc1` had an Activity in [4] of 26.5%.

In test [4], `C/C(=C/CC[C@]1(C)[C@@H]2C[C@@H]3[C@H](C2)[C@@]31C)COC(=O)CCC(=O)O` gave an Activity of 5.82%.

`C/C(=C/CC[C@]1(C)[C@@H]2C[C@@H]3[C@H](C2)[C@@]31C)CN1CCCCC1` registered an Activity in test [4] of 16.8%.

On to `C=C1[C@@H]2CC[C@@H](C2)[C@@]1(C)CC/C=C(/C)CO`, for which the Activity is 55.8% in test [4] (filed as agonist) and under 16% in [6]. Moreover, the result in [10] and in [12] was inactive. For the same compound, in test [11], the outcome was Active. Further, the Ki in test [7] was determined as 8.19 µM.
